Source: the kinase profiling compilation of Christmann-Franck et al. (2016)
Values belong to the molecule of their own block, whether it stands above or below them.

Legend:
Assay in all cases: radiometric filter-binding kinase assay
[1] = target: MAPK1 (human) (UniProt P28482)
[2] = target: PLK1 (human) (UniProt P53350)
[3] = target: BRSK1 (human) (UniProt Q8TDC3)
[4] = target: GSK3B (human) (UniProt P49841)
[5] = system: AKT1 (human), P31749 [S473D]
[6] = target: MAPKAPK3 (human) (UniProt Q16644)
[7] = target: MAP3K1 (human) (UniProt Q13233)
[8] = target: SRPK1 (human) (UniProt Q96SB4)
[9] = target: CSK (human) (UniProt P41240)
[10] = target: BRSK2 (human) (UniProt Q8IWQ3)
[11] = target: CSNK1D (human) (UniProt P48730)
[12] = target: MKNK2 (human) (UniProt Q9HBH9)
[13] = target: RPS6KA3 KD1 KD2 (human) (UniProt P51812)
[14] = target: BTK (human) (UniProt Q06187)
[15] = target: EPHA4 (human) (UniProt P54764)
[16] = target: AURKA (human) (UniProt O14965)
[17] = target: MAPK9 (human) (UniProt P45984)
[18] = target: PAK7 (human) (UniProt Q9P286)
[19] = target: TBK1 (human) (UniProt Q9UHD2)
[20] = target: RPS6KA5 KD1 KD2 (human) (UniProt O75582)
[21] = target: STK11 CAB39 STRADA (human) (UniProt Q9Y376+Q7RTN6+Q15831)
[22] = target: ERBB4 (human) (UniProt Q15303)
[23] = target: IKBKB (human) (UniProt O14920)
[24] = target: EEF2K (human) (UniProt O00418)
[25] = target: HIPK1 (human) (UniProt Q86Z02)
[26] = target: MAPK3 (human) (UniProt P27361)
[27] = target: MAPK8 (human) (UniProt P45983)
[28] = target: MAPK15 (human) (UniProt Q8TD08)
[29] = target: HIPK3 (human) (UniProt Q9H422)
[30] = system: PAK2 (human), Q13177 [T402E]
[31] = target: NEK6 (human) (UniProt Q9HC98)
[32] = target: FGFR1 (human) (UniProt P11362)
[33] = target: MAP2K2 (human) (UniProt P36507)
[34] = target: MAP2K6 (human) (UniProt P52564)
[35] = target: MAP3K5 (human) (UniProt Q99683)

Sequence of STK11 CAB39 STRADA (human) (Q15831 whole entry, looked up): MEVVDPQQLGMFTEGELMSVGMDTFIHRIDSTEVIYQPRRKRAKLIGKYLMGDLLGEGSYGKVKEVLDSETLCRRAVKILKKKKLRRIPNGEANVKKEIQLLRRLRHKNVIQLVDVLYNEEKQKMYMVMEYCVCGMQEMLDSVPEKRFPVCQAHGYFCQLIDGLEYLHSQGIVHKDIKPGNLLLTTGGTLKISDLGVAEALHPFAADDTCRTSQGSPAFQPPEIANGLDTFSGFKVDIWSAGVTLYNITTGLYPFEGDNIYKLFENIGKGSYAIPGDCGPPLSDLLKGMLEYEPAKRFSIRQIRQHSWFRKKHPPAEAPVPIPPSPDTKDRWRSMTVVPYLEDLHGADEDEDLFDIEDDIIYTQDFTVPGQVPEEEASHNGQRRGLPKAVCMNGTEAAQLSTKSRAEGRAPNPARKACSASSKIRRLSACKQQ
Sequence of STK11 CAB39 STRADA (human) (Q7RTN6 whole entry, looked up): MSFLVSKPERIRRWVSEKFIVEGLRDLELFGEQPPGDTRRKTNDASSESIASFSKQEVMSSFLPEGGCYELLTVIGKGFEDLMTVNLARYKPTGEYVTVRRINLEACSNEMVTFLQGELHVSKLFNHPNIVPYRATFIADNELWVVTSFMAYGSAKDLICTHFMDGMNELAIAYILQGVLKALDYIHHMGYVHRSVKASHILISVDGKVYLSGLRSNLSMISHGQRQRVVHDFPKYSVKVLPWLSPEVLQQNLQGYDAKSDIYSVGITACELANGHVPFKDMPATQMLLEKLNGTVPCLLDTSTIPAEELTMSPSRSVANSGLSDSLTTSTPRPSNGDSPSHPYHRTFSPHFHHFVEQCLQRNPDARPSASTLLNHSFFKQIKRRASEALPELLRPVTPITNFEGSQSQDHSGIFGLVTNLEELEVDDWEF
Sequence of STK11 CAB39 STRADA (human) (Q9Y376 whole entry, looked up): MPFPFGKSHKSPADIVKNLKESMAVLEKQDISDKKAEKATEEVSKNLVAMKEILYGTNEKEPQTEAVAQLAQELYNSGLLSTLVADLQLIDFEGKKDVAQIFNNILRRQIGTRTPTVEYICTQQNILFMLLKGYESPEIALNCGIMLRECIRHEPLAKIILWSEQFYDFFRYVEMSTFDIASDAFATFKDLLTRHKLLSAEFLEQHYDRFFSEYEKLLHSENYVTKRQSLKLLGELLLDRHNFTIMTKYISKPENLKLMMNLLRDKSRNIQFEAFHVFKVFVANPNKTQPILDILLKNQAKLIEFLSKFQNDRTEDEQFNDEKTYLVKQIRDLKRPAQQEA
Sequence of NEK6 (human) (Q9HC98 whole entry, looked up): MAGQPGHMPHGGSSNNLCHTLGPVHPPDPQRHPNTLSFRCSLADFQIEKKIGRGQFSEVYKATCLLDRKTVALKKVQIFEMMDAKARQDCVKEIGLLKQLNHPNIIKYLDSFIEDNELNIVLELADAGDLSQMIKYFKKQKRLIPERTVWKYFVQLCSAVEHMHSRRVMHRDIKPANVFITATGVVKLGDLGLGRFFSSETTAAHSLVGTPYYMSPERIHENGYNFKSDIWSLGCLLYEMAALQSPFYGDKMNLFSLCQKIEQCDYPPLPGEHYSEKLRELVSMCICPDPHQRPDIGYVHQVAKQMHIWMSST
Sequence of BTK (human) (Q06187 whole entry, looked up): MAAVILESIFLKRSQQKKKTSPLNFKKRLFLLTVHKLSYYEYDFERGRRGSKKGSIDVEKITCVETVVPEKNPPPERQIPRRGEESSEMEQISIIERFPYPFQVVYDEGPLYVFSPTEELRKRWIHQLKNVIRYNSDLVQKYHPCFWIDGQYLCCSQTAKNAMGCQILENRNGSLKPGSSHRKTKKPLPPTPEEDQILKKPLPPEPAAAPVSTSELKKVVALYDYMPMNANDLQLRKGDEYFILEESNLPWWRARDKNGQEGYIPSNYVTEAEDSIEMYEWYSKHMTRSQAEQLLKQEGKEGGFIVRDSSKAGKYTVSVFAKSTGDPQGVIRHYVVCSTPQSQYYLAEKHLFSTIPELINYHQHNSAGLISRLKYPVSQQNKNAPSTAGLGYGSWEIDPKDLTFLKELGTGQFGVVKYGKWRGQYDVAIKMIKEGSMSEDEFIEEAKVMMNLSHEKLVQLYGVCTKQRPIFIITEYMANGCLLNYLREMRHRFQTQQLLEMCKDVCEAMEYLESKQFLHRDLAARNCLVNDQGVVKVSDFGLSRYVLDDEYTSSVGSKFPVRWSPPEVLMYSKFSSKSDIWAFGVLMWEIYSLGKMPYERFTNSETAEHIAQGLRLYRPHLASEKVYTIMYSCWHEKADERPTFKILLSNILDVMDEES
Sequence of FGFR1 (human) (P11362 whole entry, looked up): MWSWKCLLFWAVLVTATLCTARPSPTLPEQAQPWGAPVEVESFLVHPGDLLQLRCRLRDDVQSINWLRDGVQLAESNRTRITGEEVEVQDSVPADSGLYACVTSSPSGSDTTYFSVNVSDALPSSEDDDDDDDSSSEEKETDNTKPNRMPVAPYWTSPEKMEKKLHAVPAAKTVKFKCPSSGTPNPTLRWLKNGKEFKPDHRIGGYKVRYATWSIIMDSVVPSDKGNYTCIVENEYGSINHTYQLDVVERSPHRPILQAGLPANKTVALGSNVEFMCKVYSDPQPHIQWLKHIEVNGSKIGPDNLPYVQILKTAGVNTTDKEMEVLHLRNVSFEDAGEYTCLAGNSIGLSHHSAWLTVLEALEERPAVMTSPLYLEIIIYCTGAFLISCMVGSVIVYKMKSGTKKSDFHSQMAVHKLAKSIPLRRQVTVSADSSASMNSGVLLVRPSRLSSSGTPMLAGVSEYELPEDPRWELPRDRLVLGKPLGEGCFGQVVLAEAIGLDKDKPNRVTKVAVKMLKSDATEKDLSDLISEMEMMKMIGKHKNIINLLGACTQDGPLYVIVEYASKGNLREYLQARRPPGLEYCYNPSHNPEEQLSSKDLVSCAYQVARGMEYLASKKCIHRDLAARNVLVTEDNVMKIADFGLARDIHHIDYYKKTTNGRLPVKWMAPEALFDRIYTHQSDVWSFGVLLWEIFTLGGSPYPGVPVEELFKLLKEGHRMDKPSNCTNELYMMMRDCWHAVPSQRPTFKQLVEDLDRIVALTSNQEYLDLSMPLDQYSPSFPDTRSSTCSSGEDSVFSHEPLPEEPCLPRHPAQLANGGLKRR
Sequence of MAPK15 (human) (Q8TD08 whole entry, looked up): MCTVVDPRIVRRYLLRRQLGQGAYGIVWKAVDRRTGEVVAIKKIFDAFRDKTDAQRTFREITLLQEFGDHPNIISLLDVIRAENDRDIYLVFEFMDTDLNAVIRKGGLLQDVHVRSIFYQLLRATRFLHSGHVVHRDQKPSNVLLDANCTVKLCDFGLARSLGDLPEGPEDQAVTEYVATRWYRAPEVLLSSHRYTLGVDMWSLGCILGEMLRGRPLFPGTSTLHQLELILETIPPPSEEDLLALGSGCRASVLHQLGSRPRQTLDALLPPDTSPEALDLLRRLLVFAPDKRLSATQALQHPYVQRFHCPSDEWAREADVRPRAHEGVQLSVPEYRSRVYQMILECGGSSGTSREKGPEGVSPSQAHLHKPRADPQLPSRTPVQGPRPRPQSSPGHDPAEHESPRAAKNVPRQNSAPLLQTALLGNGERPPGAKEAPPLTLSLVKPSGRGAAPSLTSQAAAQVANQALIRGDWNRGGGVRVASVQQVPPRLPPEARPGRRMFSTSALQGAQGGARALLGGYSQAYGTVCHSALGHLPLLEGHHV
Sequence of HIPK1 (human) (Q86Z02 whole entry, looked up): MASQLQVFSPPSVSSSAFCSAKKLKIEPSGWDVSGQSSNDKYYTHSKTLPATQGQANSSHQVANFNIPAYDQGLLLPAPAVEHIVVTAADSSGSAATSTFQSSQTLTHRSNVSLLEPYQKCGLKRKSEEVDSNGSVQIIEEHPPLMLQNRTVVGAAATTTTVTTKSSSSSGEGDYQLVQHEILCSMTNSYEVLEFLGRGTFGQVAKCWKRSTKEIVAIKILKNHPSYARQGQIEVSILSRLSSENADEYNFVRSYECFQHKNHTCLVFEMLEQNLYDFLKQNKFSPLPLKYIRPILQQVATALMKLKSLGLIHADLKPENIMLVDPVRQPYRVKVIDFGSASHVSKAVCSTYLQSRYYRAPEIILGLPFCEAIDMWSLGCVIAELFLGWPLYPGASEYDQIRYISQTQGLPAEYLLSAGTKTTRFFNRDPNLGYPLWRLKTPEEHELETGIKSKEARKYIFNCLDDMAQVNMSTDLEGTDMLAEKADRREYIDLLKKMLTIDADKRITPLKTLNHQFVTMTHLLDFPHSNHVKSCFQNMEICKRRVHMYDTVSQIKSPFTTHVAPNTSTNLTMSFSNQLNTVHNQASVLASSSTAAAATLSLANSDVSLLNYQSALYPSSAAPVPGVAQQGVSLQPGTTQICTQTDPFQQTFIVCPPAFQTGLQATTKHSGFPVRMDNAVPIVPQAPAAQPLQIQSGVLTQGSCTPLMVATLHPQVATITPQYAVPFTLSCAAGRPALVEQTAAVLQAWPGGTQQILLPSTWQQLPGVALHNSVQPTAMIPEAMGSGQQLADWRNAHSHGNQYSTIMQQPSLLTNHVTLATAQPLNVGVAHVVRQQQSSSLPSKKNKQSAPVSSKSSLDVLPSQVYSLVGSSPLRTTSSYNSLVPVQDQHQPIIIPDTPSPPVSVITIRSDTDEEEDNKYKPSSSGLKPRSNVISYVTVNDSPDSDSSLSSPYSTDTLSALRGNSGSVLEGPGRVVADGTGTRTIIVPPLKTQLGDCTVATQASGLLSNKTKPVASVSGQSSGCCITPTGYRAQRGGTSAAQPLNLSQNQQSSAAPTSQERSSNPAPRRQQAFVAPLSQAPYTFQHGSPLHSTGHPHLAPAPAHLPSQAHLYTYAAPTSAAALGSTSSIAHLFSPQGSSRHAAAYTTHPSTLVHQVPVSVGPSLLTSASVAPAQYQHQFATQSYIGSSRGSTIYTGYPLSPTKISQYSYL

residual activity ([1]; compound 0.1 µM): 104% | residual activity ([1]; compound 1.0 µM): 94% | residual activity ([2]; compound 0.1 µM): 99% | residual activity ([2]; compound 1.0 µM): 106% | residual activity ([3]; compound 0.1 µM): 110% | residual activity ([3]; compound 1.0 µM): 95% | residual activity ([4]; compound 0.1 µM): 99% | residual activity ([4]; compound 1.0 µM): 79% | residual activity ([5]; compound 0.1 µM): 102% | residual activity ([5]; compound 1.0 µM): 106% | residual activity ([6]; compound 0.1 µM): 107% | residual activity ([6]; compound 1.0 µM): 97% | residual activity ([7]; compound 0.1 µM): 130% | residual activity ([7]; compound 1.0 µM): 111% | residual activity ([8]; compound 0.1 µM): 101% | residual activity ([8]; compound 1.0 µM): 84% | residual activity ([9]; compound 0.1 µM): 97% | residual activity ([9]; compound 1.0 µM): 93% | residual activity ([10]; compound 0.1 µM): 117% | residual activity ([10]; compound 1.0 µM): 92% | residual activity ([11]; compound 0.1 µM): 90% | residual activity ([11]; compound 1.0 µM): 46% | residual activity ([12]; compound 0.1 µM): 81% | residual activity ([12]; compound 1.0 µM): 91% | residual activity ([13]; compound 0.1 µM): 126% | residual activity ([13]; compound 1.0 µM): 109% | residual activity ([14]; compound 0.1 µM): 110% | residual activity ([14]; compound 1.0 µM): 104% | residual activity ([15]; compound 0.1 µM): 108% | residual activity ([15]; compound 1.0 µM): 98% | residual activity ([16]; compound 0.1 µM): 120% | residual activity ([16]; compound 1.0 µM): 107% | residual activity ([17]; compound 0.1 µM): 105% | residual activity ([17]; compound 1.0 µM): 90% | residual activity ([18]; compound 0.1 µM): 107% | residual activity ([18]; compound 1.0 µM): 102% | residual activity ([19]; compound 0.1 µM): 102% | residual activity ([19]; compound 1.0 µM): 106% | residual activity ([20]; compound 0.1 µM): 110% | residual activity ([20]; compound 1.0 µM): 101% | residual activity ([21]; compound 0.1 µM): 101% | residual activity ([21]; compound 1.0 µM): 99% | residual activity ([22]; compound 0.1 µM): 104% | residual activity ([22]; compound 1.0 µM): 82% | residual activity ([23]; compound 0.1 µM): 107% | residual activity ([23]; compound 1.0 µM): 100% | residual activity ([24]; compound 0.1 µM): 102% | residual activity ([24]; compound 1.0 µM): 100% | residual activity ([25]; compound 0.1 µM): 96% | residual activity ([25]; compound 1.0 µM): 98% | residual activity ([26]; compound 0.1 µM): 105% | residual activity ([26]; compound 1.0 µM): 100% | residual activity ([27]; compound 0.1 µM): 111% | residual activity ([27]; compound 1.0 µM): 101% | residual activity ([29]; compound 0.1 µM): 105% | residual activity ([29]; compound 1.0 µM): 99% | residual activity ([30]; compound 0.1 µM): 111% | residual activity ([30]; compound 1.0 µM): 101% | residual activity ([31]; compound 0.1 µM): 107% | residual activity ([31]; compound 1.0 µM): 100% | residual activity ([32]; compound 0.1 µM): 64% | residual activity ([32]; compound 1.0 µM): 37%
Compound: Cc1cccc(-c2nn(C(=S)Nc3ccccc3)cc2-c2ccnc3ccccc23)n1
residual activity ([28]; compound 0.1 µM): 108% | residual activity ([28]; compound 1.0 µM): 93%

residual activity ([1]; compound 1.0 µM): 99% | residual activity ([1]; compound 10.0 µM): 89% | residual activity ([2]; compound 1.0 µM): 98% | residual activity ([2]; compound 10.0 µM): 100% | residual activity ([3]; compound 1.0 µM): 97% | residual activity ([3]; compound 10.0 µM): 90% | residual activity ([4]; compound 1.0 µM): 90% | residual activity ([4]; compound 10.0 µM): 42% | residual activity ([5]; compound 1.0 µM): 115% | residual activity ([5]; compound 10.0 µM): 102% | residual activity ([6]; compound 1.0 µM): 100% | residual activity ([6]; compound 10.0 µM): 93% | residual activity ([8]; compound 1.0 µM): 97% | residual activity ([8]; compound 10.0 µM): 93% | residual activity ([33]; compound 1.0 µM): 93% | residual activity ([33]; compound 10.0 µM): 74% | residual activity ([9]; compound 1.0 µM): 96% | residual activity ([9]; compound 10.0 µM): 88% | residual activity ([10]; compound 1.0 µM): 99% | residual activity ([10]; compound 10.0 µM): 73% | residual activity ([11]; compound 1.0 µM): 96% | residual activity ([11]; compound 10.0 µM): 81% | residual activity ([12]; compound 1.0 µM): 106% | residual activity ([12]; compound 10.0 µM): 115% | residual activity ([13]; compound 1.0 µM): 107% | residual activity ([13]; compound 10.0 µM): 89% | residual activity ([14]; compound 1.0 µM): 90% | residual activity ([14]; compound 10.0 µM): 68% | residual activity ([15]; compound 1.0 µM): 114% | residual activity ([15]; compound 10.0 µM): 53% | residual activity ([16]; compound 1.0 µM): 87% | residual activity ([16]; compound 10.0 µM): 22% | residual activity ([17]; compound 1.0 µM): 106% | residual activity ([17]; compound 10.0 µM): 96% | residual activity ([18]; compound 1.0 µM): 100% | residual activity ([18]; compound 10.0 µM): 54% | residual activity ([34]; compound 1.0 µM): 109% | residual activity ([34]; compound 10.0 µM): 99% | residual activity ([19]; compound 1.0 µM): 99% | residual activity ([19]; compound 10.0 µM): 107% | residual activity ([20]; compound 1.0 µM): 108% | residual activity ([20]; compound 10.0 µM): 108% | residual activity ([21]; compound 1.0 µM): 91% | residual activity ([21]; compound 10.0 µM): 81% | residual activity ([22]; compound 1.0 µM): 106% | residual activity ([22]; compound 10.0 µM): 98% | residual activity ([23]; compound 1.0 µM): 100% | residual activity ([23]; compound 10.0 µM): 93% | residual activity ([24]; compound 1.0 µM): 97% | residual activity ([24]; compound 10.0 µM): 90% | residual activity ([25]; compound 1.0 µM): 100% | residual activity ([25]; compound 10.0 µM): 87% | residual activity ([26]; compound 1.0 µM): 107% | residual activity ([26]; compound 10.0 µM): 125% | residual activity ([27]; compound 1.0 µM): 97% | residual activity ([27]; compound 10.0 µM): 102% | residual activity ([29]; compound 1.0 µM): 89% | residual activity ([29]; compound 10.0 µM): 102% | residual activity ([30]; compound 1.0 µM): 92% | residual activity ([30]; compound 10.0 µM): 96% | residual activity ([31]; compound 1.0 µM): 107% | residual activity ([31]; compound 10.0 µM): 93% | residual activity ([35]; compound 1.0 µM): 106% | residual activity ([35]; compound 10.0 µM): 96% | residual activity ([32]; compound 1.0 µM): 105% | residual activity ([32]; compound 10.0 µM): 46%
Compound: NC(=O)c1c(NC(=O)C2CC2)sc2c1CCCC2
residual activity ([28]; compound 1.0 µM): 106% | residual activity ([28]; compound 10.0 µM): 67%
